Data on four compounds can be found in ChEMBL document CHEMBL3826903, “Extended rhodamine photosensitizers for photodynamic therapy of cancer cells” (Bioorg Med Chem, 2016).

Series [1] is described as follows: Induction of singlet oxygen assessed as quantum yields for generation of singlet oxygen by luminescence spectroscopy. It counts as physicochemical.
Series [2] in a line: Drug localization in mitochondria of human HUT78 cells assessed as bright detail similarity scores at 0.2 uM incubated for 15 mins in presence of MTG by flow cytometry. It counts as ADME. Particulars: hut78, 0.25 h. (In general: A flow cytometer gives signals particle by particle.)
Series [3] is described as follows: Drug localization in mitochondria of mouse Colon 26 cells assessed as bright detail similarity scores at 0.2 uM incubated for 15 mins in presence of MTG by flow cytometry. It counts as ADME. To be noted: colon 26, 0.25 h.
In series [4] the test system is Colon 26. Description: Dark toxicity against mouse Colon 26 cells assessed as cell survival fraction at 1 uM incubated for 1 hr in dark measured after 48 hrs by SRB assay. It counts as cell-based. To be noted: colon 26, 1 µM. For orientation: In SRB staining, fixed cells bind dye roughly in proportion to their protein.
Series [5] is described as follows: Therapeutic index, ratio of LD50 for dark toxicity against mouse Colon 26 cells to EC50 for phototoxicity against mouse Colon 26 cells at 1 Jcm'-2 of irradiation with 660 +/- 2 nm nm light. Particulars: read-out: Ratio LD50/EC50. The series is classed as cell-based.
The test system of series [6] is Colon 26. Put plainly: Phototoxicity against mouse Colon 26 cells assessed as cell survival fraction incubated for 1 hr in dark followed by irradiation with 1 J/cm'-2 light from tunable dye laser at 660 +/- 2 nm measured after 48 hrs by SRB assay. It counts as functional, cell-based. Particulars: Colon 26, light or radiation study.
Series [7] can be described thus: Dark toxicity against mouse Colon 26 cells assessed as cell survival fraction incubated for 1 hr in dark measured after 48 hrs by SRB assay. It counts as cell-based. To be noted: read-out: LD50.
Series [8] is described as follows: Therapeutic index, ratio of LD50 for dark toxicity against mouse Colon 26 cells to EC50 for phototoxicity against mouse Colon 26 cells at 10 Jcm'-2 of irradiation with 690 +/- 2 nm light. It counts as cell-based. To be noted: read-out: Ratio LD50/EC50.
The nature of series [9]: Therapeutic index, ratio of LD50 for dark toxicity against mouse Colon 26 cells to EC50 for phototoxicity against mouse Colon 26 cells at 5 Jcm'-2 of irradiation with 690 +/- 2 nm light. It counts as cell-based. To be noted: read-out: Ratio LD50/EC50.
For series [10], the system named is Colon 26. Description: Phototoxicity against mouse Colon 26 cells assessed as cell survival fraction incubated for 1 hr in dark followed by irradiation with 5 J/cm'-2 light from tunable dye laser at 690 +/- 2 nm measured after 48 hrs by SRB assay. The series is classed as functional, cell-based. To be noted: Colon 26, light or radiation study.
In series [11] the test system is Colon 26. Put plainly: Phototoxicity against mouse Colon 26 cells assessed as cell survival fraction incubated for 1 hr in dark followed by irradiation with 10 J/cm'-2 light from tunable dye laser at 690 +/- 2 nm measured after 48 hrs by SRB assay. Particulars: Colon 26, light or radiation study. The series is classed as functional, cell-based.
The test system of series [12] is Colon 26. Put plainly: Phototoxicity against mouse Colon 26 cells assessed as cell survival fraction incubated for 1 hr in dark followed by irradiation with 1 J/cm'-2 light from tunable dye laser at 642 +/- 2 nm measured after 48 hrs by SRB assay. The series is classed as functional, cell-based. Particulars: Colon 26, light or radiation study.
The nature of series [13]: Therapeutic index, ratio of LD50 for dark toxicity against mouse Colon 26 cells to EC50 for phototoxicity against mouse Colon 26 cells at 5 Jcm'-2 of irradiation with 700 +/- 2 nm light. It counts as cell-based. To be noted: read-out: Ratio LD50/EC50.
Series [14] deals with Colon 26. Description: Phototoxicity against mouse Colon 26 cells assessed as cell survival fraction incubated for 1 hr in dark followed by irradiation with 10 J/cm'-2 light from tunable dye laser at 700 +/- 2 nm measured after 48 hrs by SRB assay. To be noted: Colon 26, light or radiation study. The series is classed as functional, cell-based.
Series [15] has as its system Colon 26. Put plainly: Phototoxicity against mouse Colon 26 cells assessed as cell survival fraction incubated for 1 hr in dark followed by irradiation with 5 J/cm'-2 light from tunable dye laser at 700 +/- 2 nm measured after 48 hrs by SRB assay. Particulars: Colon 26, light or radiation study. The series is classed as functional, cell-based.
Series [16] is described as follows: Therapeutic index, ratio of LD50 for dark toxicity against mouse Colon 26 cells to EC50 for phototoxicity against mouse Colon 26 cells at 10 Jcm'-2 of irradiation with 700 +/- 2 nm light. Particulars: read-out: Ratio LD50/EC50. The series is classed as cell-based.

Broadly, the EC50 is the concentration at which the effect is half-maximal.

Regarding `CN(C)c1ccc2c(-c3ccccc3)c3ccc4cc(=[N+](C)C)ccc4c3[se]c2c1.F[P-](F)(F)(F)(F)F`, in series [1], the “Singlet oxygen quantum yield” value worked out at 0.65. For the same compound, the Drug uptake was 2.458 in [2] and 1.38 in series [3]. In the series with Colon 26 [4], the Activity result is listed as “Non-toxic”. For the same compound, in [5], the selectivity ratio was greater than 15. The EC50 in the series with Colon 26 [6] was 64 nM. Besides, the CC50 at 1 h in series [7] was greater than 1000 nM.
Regarding `CN(C)c1ccc2c(-c3ccccc3)c3cc4ccc(=[N+](C)C)cc4cc3sc2c1.F[P-](F)(F)(F)(F)F`, the selectivity ratio in series [8] was 5.1; in [9], 3.3. The “Singlet oxygen quantum yield” value in [1] is less than 0.05. Moreover, the Drug uptake is recorded as 2.153 in series [2] and 1.2 in [3]. In the series with Colon 26 [4], the Activity result is recorded as “Toxic”. The EC50 in the series on Colon 26 [10] stood at 140 nM; in the series with Colon 26 [11] it was 90 nM. For the same compound, the CC50 at 1 h in [7] stood at 460 nM.
Consider `CN(C)c1ccc2c(-c3ccccc3)c3ccc4cc(=[N+](C)C)ccc4c3sc2c1.F[P-](F)(F)(F)(F)F`, for which the “Singlet oxygen quantum yield” value in series [1] is reported as 0.15. Besides, the figures for the Drug uptake in series [2] and in series [3] were 2.82 and 1.77, respectively. In the series on Colon 26 [12], the EC50 was determined as 280 nM. Also, in the series on Colon 26 [4], the Activity result is recorded as “Non-toxic”.
Turning to `CN(C)c1ccc2c(-c3ccccc3)c3cc4ccc(=[N+](C)C)cc4cc3[se]c2c1.F[P-](F)(F)(F)(F)F`, the selectivity ratio came out at 8.3 in [13] and 11 in [16]. Besides, the “Singlet oxygen quantum yield” value in series [1] is listed as less than 0.05. The values for the Drug uptake in [2] and in [3] were 0.683 and 0.7204, respectively. The Activity entry in the series on Colon 26 [4] is recorded as “Toxic”. The EC50 with Colon 26 [14] came to 180 nM; with Colon 26 [15], 240 nM. The CC50 at 1 h in series [7] is 2000 nM.
